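The compound was tested at five concentrations on cells cultured in 96-well plates, with a 48-hour exposure period. Abbreviation: GI50, concentration required for 50% inhibition of growth.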 Activity calls are given as the source filed them. Cut-off read from the data, not from the text of the source: active = GI50 up to about 1.1 µM and inactive = higher.
Key:
Experiment in all cases: growth of human tumour cells (NCI), 48 h
A549 = system: A549
CAKI-1 = system: CAKI-1
HCT-15 = system: HCT-15
HT-29 = system: HT-29
IGROV-1 = system: IGROV-1
K562 = system: K562
LOX IMVI = system: LOX IMVI
M14 = system: M14
MOLT-4 = system: MOLT-4
OVCAR-5 = system: OVCAR-5
RXF 393 = system: RXF 393
SF-268 = system: SF-268
SN12C = system: SN12C
SNB-19 = system: SNB-19
SR = system: SR
SW-620 = system: SW-620
TK-10 = system: TK-10
UO-31 = system: UO-31
786-0 = system: 786-0
PC-3 = system: PC-3

Measured: GI50

CCCCCC(/C=C/c1ncccc1OCCCCCC(=O)O)=N\NC1=NCCN1
inactive: A549 > 100 µM | CAKI-1 > 100 µM | HT-29 > 100 µM | IGROV-1 > 100 µM | K562 60.3 µM | LOX IMVI 74 µM | M14 > 100 µM | MOLT-4 62.7 µM | OVCAR-5 > 100 µM | RXF 393 > 100 µM | SF-268 > 100 µM | SN12C 94.4 µM | SNB-19 > 100 µM | SR 39.4 µM | SW-620 85.1 µM | TK-10 > 100 µM | UO-31 > 100 µM
> 100 µM: HCT-15

O=C(CC1Sc2ccccc2NC1=O)Nc1ccc(Cl)cc1 (configuration not stated)
75.9 µM: HCT-15
inactive: A549 91.8 µM | CAKI-1 > 100 µM | HT-29 > 100 µM | IGROV-1 86.3 µM | K562 > 100 µM | LOX IMVI > 100 µM | M14 92.5 µM | MOLT-4 > 100 µM | OVCAR-5 > 100 µM | RXF 393 31.1 µM | SF-268 38.5 µM | SN12C > 100 µM | SNB-19 > 100 µM | SR > 100 µM | SW-620 > 100 µM | TK-10 > 100 µM | UO-31 > 100 µM

Clc1ccccc1C(n1ncc2ccccc21)n1ncc2ccccc21
inactive: 786-0 65.9 µM | CAKI-1 30.6 µM | HT-29 35.9 µM | IGROV-1 > 10 µM | K562 28.4 µM | LOX IMVI 49.9 µM | M14 31 µM | MOLT-4 18.9 µM | OVCAR-5 37.7 µM | RXF 393 28.3 µM | SF-268 99.3 µM | SN12C 65.2 µM | SNB-19 57.5 µM | SR 27 µM | SW-620 29.7 µM | TK-10 99.8 µM | UO-31 31.3 µM
38.3 µM: HCT-15

COc1cc(OC2OC(CO)C(O)C(O)C2O)c2c(O)c3c(=O)cc(C)oc3cc2c1 (configuration not stated)
> 100 µM: HCT-15
inactive: A549 > 100 µM | CAKI-1 > 100 µM | HT-29 > 100 µM | IGROV-1 > 100 µM | K562 > 100 µM | LOX IMVI > 100 µM | M14 > 100 µM | MOLT-4 > 100 µM | OVCAR-5 > 100 µM | PC-3 > 100 µM | SF-268 64.3 µM | SNB-19 > 100 µM | SW-620 > 100 µM | TK-10 > 100 µM | UO-31 > 100 µM

CN1C2CCC1/C(=C/c1cccc3c1OCO3)C(=O)/C2=C\c1cccc2c1OCO2
> 100 µM: HCT-15
inactive: HT-29 > 100 µM | IGROV-1 30.1 µM | K562 > 10 µM | LOX IMVI > 100 µM | M14 59 µM | MOLT-4 > 100 µM | OVCAR-5 > 100 µM | RXF 393 11.3 µM | SF-268 47.6 µM | SN12C > 100 µM | SR > 100 µM | SW-620 > 100 µM | TK-10 21.3 µM | UO-31 > 100 µM

COC(=O)C1=C(C)N2CCOC2CC1c1ccccc1 (configuration not stated)
inactive: A549 > 100 µM | CAKI-1 > 100 µM | HT-29 > 100 µM | IGROV-1 > 100 µM | K562 70.5 µM | M14 > 100 µM | MOLT-4 77.4 µM | RXF 393 48.6 µM | SF-268 > 100 µM | SNB-19 > 100 µM | SR 78.9 µM | SW-620 > 100 µM | TK-10 > 100 µM | UO-31 > 100 µM

O=C1C(=C2CCCC2)CCC1CN1CCCCC1 (configuration not stated)
inactive: 786-0 13.6 µM | A549 > 100 µM | HT-29 20.4 µM | IGROV-1 18.4 µM | K562 16.3 µM | M14 15.7 µM | MOLT-4 18.5 µM | OVCAR-5 19.8 µM | RXF 393 16.4 µM | SF-268 19.5 µM | SN12C 16.8 µM | SNB-19 > 100 µM | SR 20.7 µM | SW-620 16.4 µM | TK-10 14.1 µM | UO-31 > 100 µM
16.3 µM: HCT-15

COc1ccc(C(=O)C(C(=O)C(=O)NC2C3CC4CC(C3)CC2C4)c2ccc(OC)cc2)cc1 (configuration not stated)
> 100 µM: HCT-15
inactive: 786-0 > 100 µM | A549 > 100 µM | CAKI-1 > 100 µM | HT-29 > 100 µM | IGROV-1 > 100 µM | K562 > 100 µM | LOX IMVI > 100 µM | M14 > 100 µM | MOLT-4 > 100 µM | OVCAR-5 > 100 µM | SF-268 > 100 µM | SN12C > 100 µM | SNB-19 > 100 µM | SR > 100 µM | SW-620 > 100 µM | TK-10 > 100 µM | UO-31 > 100 µM

O=C(CCc1ccccc1)CC1OC(=O)C(Cl)=C1Cl (configuration not stated)
inactive: 786-0 19.1 µM | A549 43.4 µM | CAKI-1 29.5 µM | HT-29 19.2 µM | IGROV-1 22.2 µM | K562 35 µM | LOX IMVI 18.6 µM | M14 16.5 µM | MOLT-4 33 µM | OVCAR-5 20 µM | RXF 393 29.5 µM | SF-268 27.5 µM | SN12C 18.5 µM | SNB-19 20.9 µM | SR 30.5 µM | SW-620 12.1 µM | TK-10 33.4 µM | UO-31 19.3 µM
16 µM: HCT-15

CC1=C(C(=O)NCc2ccccc2)C(c2ccco2)C(C(=O)NCc2ccccc2)=C(C)N1
inactive: A549 > 100 µM | CAKI-1 57.5 µM | HT-29 53.8 µM | IGROV-1 > 100 µM | K562 30.3 µM | LOX IMVI 77.3 µM | M14 57 µM | MOLT-4 23 µM | OVCAR-5 > 100 µM | RXF 393 66.8 µM | SF-268 80.4 µM | SN12C 91.6 µM | SNB-19 > 100 µM | SR > 100 µM | SW-620 50.9 µM | TK-10 57.4 µM | UO-31 > 100 µM
52.8 µM: HCT-15

COc1ccc(C2=C(N)c3c(Cl)cccc3C2=O)cc1
> 100 µM: HCT-15
inactive: 786-0 > 100 µM | A549 > 100 µM | CAKI-1 > 100 µM | HT-29 > 100 µM | IGROV-1 > 100 µM | LOX IMVI > 100 µM | M14 > 100 µM | MOLT-4 95.1 µM | OVCAR-5 > 100 µM | PC-3 > 100 µM | SF-268 > 100 µM | SN12C > 100 µM | SNB-19 22 µM | SW-620 > 100 µM

O=c1c2ccccc2ncn1COCc1ccccc1
> 100 µM: HCT-15
inactive: 786-0 > 100 µM | A549 > 100 µM | HT-29 > 100 µM | IGROV-1 > 100 µM | K562 > 100 µM | LOX IMVI > 100 µM | M14 > 100 µM | MOLT-4 > 100 µM | OVCAR-5 > 100 µM | RXF 393 > 100 µM | SNB-19 > 100 µM | SR > 100 µM | SW-620 > 100 µM | TK-10 > 100 µM | UO-31 77.3 µM

— ChEMBL document CHEMBL1201862, “PubChem BioAssay data set” (2004)
